According to article PMC12102759 (Protein Science : A Publication of the Protein Society, 2025):
Read-outs that look alike come from different tables or passages of the source.

Key:
G3BP1 NFT2 = type: binding, human; conditions: library DMS-CoV, bait G3BP1 NFT2, prey N, listed as aa = residue placed at this position, column sums to 1
PABPC1 PABC = type: binding, human; conditions: DMS-BM library, bait PABPC1 PABC, row aa = residue at this position
[1] = prey ATXN2, peptide KSTLNPNAKEFNPRSF, N = wild type
[2] = prey ATXN2, TLNPNAKEFNPRSF(averaged) over the two overlapping peptides, R = wild type
[3] = prey ATXN2, peptide TLNPNAKEFNPRSFSQ, N = wild type
[4] = prey ATXN2, peptide TLNPNAKEFNPRSFSQ, F = wild type

## RNAPRITFGGPSDSTG A3H (RNHPRITFGGPSDSTG)
G3BP1 NFT2; peptide RNAPRITFGGPSDSTG
  DMS PSSM value, A (position 3): 0

## APRITFGGPSDSTGSN P9Y (APRITFGGYSDSTGSN)
G3BP1 NFT2; peptide APRITFGGPSDSTGSN
  DMS PSSM value, P (position 9): 0.04934

## APRITFGGPSDSTGSN G14F (APRITFGGPSDSTFSN)
G3BP1 NFT2; peptide APRITFGGPSDSTGSN
  DMS PSSM value, G (position 14): 0.04037

## APRITFGGPSDSTGSN P9F (APRITFGGFSDSTGSN)
G3BP1 NFT2; peptide APRITFGGPSDSTGSN
  DMS PSSM value, P (position 9): 0.2349

## RNAPRITFGGPSDSTG A3V (RNVPRITFGGPSDSTG)
G3BP1 NFT2; peptide RNAPRITFGGPSDSTG
  DMS PSSM value, A (position 3): 0

## RNAPRITFGGPSDSTG D13M (RNAPRITFGGPSMSTG)
G3BP1 NFT2; peptide RNAPRITFGGPSDSTG
  DMS PSSM value, D (position 13): 0

## APRITFGGPSDSTGSN G8M (APRITFGMPSDSTGSN)
G3BP1 NFT2; peptide APRITFGGPSDSTGSN
  DMS PSSM value, G (position 8): 0

## RNAPRITFGGPSDSTG
G3BP1 NFT2; peptide RNAPRITFGGPSDSTG
  DMS PSSM value, A (position 3): 0
  DMS PSSM value, D (position 13): 0
  DMS PSSM value, F (position 8): 1
  DMS PSSM value, G (position 9): 0
  DMS PSSM value, G (position 10): 0
  DMS PSSM value, G (position 16): 0
  DMS PSSM value, I (position 6): 0
  DMS PSSM value, N (position 2): 0
  DMS PSSM value, P (position 4): 0
  DMS PSSM value, P (position 11): 1
  DMS PSSM value, R (position 5): 0
  DMS PSSM value, S (position 12): 0
  DMS PSSM value, S (position 14): 0
  DMS PSSM value, T (position 7): 0
  DMS PSSM value, T (position 15): 0

## RNAPRITFGGPSDSTG T7A (RNAPRIAFGGPSDSTG)
G3BP1 NFT2; peptide RNAPRITFGGPSDSTG
  DMS PSSM value, T (position 7): 0

## KSTLNPNAKEFNPRSF A8I (KSTLNPNIKEFNPRSF)
PABPC1 PABC; prey ATXN2, peptide KSTLNPNAKEFNPRSF, A = wild type
  DMS-derived PSSM value, position A8: 0

## KSTLNPNAKEFNPRSF N12G (KSTLNPNAKEFGPRSF)
PABPC1 PABC; [1]
  DMS-derived PSSM value, position N12: 0.02172

## TLNPNAKEFNPRSF(averaged) R12W (TLNPNAKEFNPWSF)
PABPC1 PABC; [2]
  DMS-derived PSSM value (averaged), position R12: 0.09752

## TLNPNAKEFNPRSF(averaged) R12I (TLNPNAKEFNPISF)
PABPC1 PABC; [2]
  DMS-derived PSSM value (averaged), position R12: 0.04426

## TLNPNAKEFNPRSF(averaged) F14N (TLNPNAKEFNPRSN)
PABPC1 PABC; prey ATXN2, TLNPNAKEFNPRSF(averaged) over the two overlapping peptides, F = wild type
  DMS-derived PSSM value (averaged), position F14: 0.05683

## TLNPNAKEFNPRSFSQ N5I (TLNPIAKEFNPRSFSQ)
PABPC1 PABC; [3]
  DMS-derived PSSM value, position N5: 0.01004

## TLNPNAKEFNPRSFSQ F14K (TLNPNAKEFNPRSKSQ)
PABPC1 PABC; [4]
  DMS-derived PSSM value, position F14: 0.003921

## KSTLNPNAKEFNPRSF T3V (KSVLNPNAKEFNPRSF)
PABPC1 PABC; prey ATXN2, peptide KSTLNPNAKEFNPRSF, T = wild type
  DMS-derived PSSM value, position T3: 0.2131

## TLNPNAKEFNPRSFSQ R12I (TLNPNAKEFNPISFSQ)
PABPC1 PABC; prey ATXN2, peptide TLNPNAKEFNPRSFSQ, R = wild type
  DMS-derived PSSM value, position R12: 0.04014

## TLNPNAKEFNPRSFSQ P11W (TLNPNAKEFNWRSFSQ)
PABPC1 PABC; prey ATXN2, peptide TLNPNAKEFNPRSFSQ, P = wild type
  DMS-derived PSSM value, position P11: 0.02291

## KSTLNPNAKEFNPRSF S2D (KDTLNPNAKEFNPRSF)
PABPC1 PABC; prey ATXN2, peptide KSTLNPNAKEFNPRSF, S = wild type
  DMS-derived PSSM value, position S2: 0.01347

## TLNPNAKEFNPRSF(averaged) P4E (TLNENAKEFNPRSF)
PABPC1 PABC; prey ATXN2, TLNPNAKEFNPRSF(averaged) over the two overlapping peptides, P = wild type
  DMS-derived PSSM value (averaged), position P4: 0.0008442

## TLNPNAKEFNPRSFSQ N3V (TLVPNAKEFNPRSFSQ)
PABPC1 PABC; [3]
  DMS-derived PSSM value, position N3: 0

## KSTLNPNAKEFNPRSF N7A (KSTLNPAAKEFNPRSF)
PABPC1 PABC; [1]
  DMS-derived PSSM value, position N7: 0.01018

## TLNPNAKEFNPRSF(averaged) R12V (TLNPNAKEFNPVSF)
PABPC1 PABC; [2]
  DMS-derived PSSM value (averaged), position R12: 0.08681

## KSTLNPNAKEFNPRSF N5Y (KSTLYPNAKEFNPRSF)
PABPC1 PABC; [1]
  DMS-derived PSSM value, position N5: 0.01612

## KSTLNPNAKEFNPRSF N12L (KSTLNPNAKEFLPRSF)
PABPC1 PABC; [1]
  DMS-derived PSSM value, position N12: 0

## TLNPNAKEFNPRSF(averaged) R12S (TLNPNAKEFNPSSF)
PABPC1 PABC; [2]
  DMS-derived PSSM value (averaged), position R12: 0.1293

## KSTLNPNAKEFNPRSF R14W (KSTLNPNAKEFNPWSF)
PABPC1 PABC; prey ATXN2, peptide KSTLNPNAKEFNPRSF, R = wild type
  DMS-derived PSSM value, position R14: 0.1772

## TLNPNAKEFNPRSFSQ N3K (TLKPNAKEFNPRSFSQ)
PABPC1 PABC; [3]
  DMS-derived PSSM value, position N3: 0

## KSTLNPNAKEFNPRSF P13F (KSTLNPNAKEFNFRSF)
PABPC1 PABC; prey ATXN2, peptide KSTLNPNAKEFNPRSF, P = wild type
  DMS-derived PSSM value, position P13: 0.002959

## TLNPNAKEFNPRSFSQ F14T (TLNPNAKEFNPRSTSQ)
PABPC1 PABC; [4]
  DMS-derived PSSM value, position F14: 0.006633

## KSTLNPNAKEFNPRSF E10A (KSTLNPNAKAFNPRSF)
PABPC1 PABC; prey ATXN2, peptide KSTLNPNAKEFNPRSF, E = wild type
  DMS-derived PSSM value, position E10: 0.002857

## TLNPNAKEFNPRSF(averaged) S13Q (TLNPNAKEFNPRQF)
PABPC1 PABC; prey ATXN2, TLNPNAKEFNPRSF(averaged) over the two overlapping peptides, S = wild type
  DMS-derived PSSM value (averaged), position S13: 0.009251

## TLNPNAKEFNPRSF(averaged) N5H (TLNPHAKEFNPRSF)
PABPC1 PABC; prey ATXN2, TLNPNAKEFNPRSF(averaged) over the two overlapping peptides, N = wild type
  DMS-derived PSSM value (averaged), position N5: 0.03609

## TLNPNAKEFNPRSFSQ S15P (TLNPNAKEFNPRSFPQ)
PABPC1 PABC; prey ATXN2, peptide TLNPNAKEFNPRSFSQ, S = wild type
  DMS-derived PSSM value, position S15: 0.326
